Source: article PMC2115601 (The Journal of Cell Biology, 1989)
Residues, ends and D or L forms follow the SMILES beside them.

Assays:
ADP-stimulated platelets = ADP-stimulated platelets (Homo sapiens, UniProt P05106+P08514); assay: Inhibition of 125I-fibrinogen binding to ADP-stimulated platelets; conditions: for Extent of inhibition of fibrinogen binding to platelets: high concentrations of peptide; for IC50: read-out: IC50 Platelets (Table III), mean of three separate experiments
endothelial cells [1] = target: T1, endothelial cells (UniProt P05106+P06756); assay: Inhibition of 125I-fibrinogen binding to endothelial cells in suspension; parameters: species or system human; conditions: for Extent of inhibition of fibrinogen binding to endothelial cells: high concentrations of peptide
T1 sequence (P06756 31-1048): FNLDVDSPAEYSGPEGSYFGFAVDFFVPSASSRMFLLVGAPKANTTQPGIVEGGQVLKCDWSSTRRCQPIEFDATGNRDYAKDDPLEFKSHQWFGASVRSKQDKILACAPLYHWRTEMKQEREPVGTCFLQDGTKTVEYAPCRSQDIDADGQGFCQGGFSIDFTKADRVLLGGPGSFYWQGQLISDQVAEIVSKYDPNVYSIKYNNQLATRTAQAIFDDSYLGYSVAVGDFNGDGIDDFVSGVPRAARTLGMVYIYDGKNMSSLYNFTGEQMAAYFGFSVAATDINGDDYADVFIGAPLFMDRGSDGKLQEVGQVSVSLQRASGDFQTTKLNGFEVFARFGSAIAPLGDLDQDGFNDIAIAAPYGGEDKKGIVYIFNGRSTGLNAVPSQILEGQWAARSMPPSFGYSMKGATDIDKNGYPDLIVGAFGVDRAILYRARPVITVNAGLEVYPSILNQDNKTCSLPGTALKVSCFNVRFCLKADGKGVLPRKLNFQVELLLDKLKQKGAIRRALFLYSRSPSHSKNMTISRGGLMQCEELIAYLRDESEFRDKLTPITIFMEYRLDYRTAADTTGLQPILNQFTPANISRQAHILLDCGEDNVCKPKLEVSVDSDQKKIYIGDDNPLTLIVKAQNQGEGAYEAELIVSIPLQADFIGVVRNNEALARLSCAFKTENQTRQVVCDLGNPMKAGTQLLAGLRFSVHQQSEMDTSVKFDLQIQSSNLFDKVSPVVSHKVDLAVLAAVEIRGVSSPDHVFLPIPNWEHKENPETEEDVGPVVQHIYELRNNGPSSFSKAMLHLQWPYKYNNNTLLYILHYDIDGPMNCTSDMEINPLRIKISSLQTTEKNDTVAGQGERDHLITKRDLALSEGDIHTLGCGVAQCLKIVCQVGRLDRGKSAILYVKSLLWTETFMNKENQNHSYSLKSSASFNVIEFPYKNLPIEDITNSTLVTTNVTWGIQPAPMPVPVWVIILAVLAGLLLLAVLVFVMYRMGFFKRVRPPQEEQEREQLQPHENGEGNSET
T1 sequence (P05106 27-788): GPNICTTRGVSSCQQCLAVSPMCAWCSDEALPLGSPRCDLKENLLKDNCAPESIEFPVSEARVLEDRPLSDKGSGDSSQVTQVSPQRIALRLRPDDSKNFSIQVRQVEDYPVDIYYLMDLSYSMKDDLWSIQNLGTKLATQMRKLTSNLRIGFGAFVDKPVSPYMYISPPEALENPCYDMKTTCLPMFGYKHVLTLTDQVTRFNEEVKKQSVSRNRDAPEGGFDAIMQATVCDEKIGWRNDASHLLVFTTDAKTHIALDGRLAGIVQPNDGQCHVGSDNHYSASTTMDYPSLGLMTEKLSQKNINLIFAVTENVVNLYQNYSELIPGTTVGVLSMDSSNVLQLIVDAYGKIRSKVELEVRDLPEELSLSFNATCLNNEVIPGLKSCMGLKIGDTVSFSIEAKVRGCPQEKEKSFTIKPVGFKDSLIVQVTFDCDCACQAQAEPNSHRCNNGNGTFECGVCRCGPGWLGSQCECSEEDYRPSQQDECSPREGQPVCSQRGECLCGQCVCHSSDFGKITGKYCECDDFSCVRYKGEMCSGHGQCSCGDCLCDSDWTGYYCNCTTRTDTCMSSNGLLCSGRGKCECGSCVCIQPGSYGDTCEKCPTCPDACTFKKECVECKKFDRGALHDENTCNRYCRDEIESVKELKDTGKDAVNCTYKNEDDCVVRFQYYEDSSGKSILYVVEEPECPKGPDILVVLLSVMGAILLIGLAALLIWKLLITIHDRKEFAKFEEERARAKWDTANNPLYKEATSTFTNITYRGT
T1 sequence (P02671 36-866 partner): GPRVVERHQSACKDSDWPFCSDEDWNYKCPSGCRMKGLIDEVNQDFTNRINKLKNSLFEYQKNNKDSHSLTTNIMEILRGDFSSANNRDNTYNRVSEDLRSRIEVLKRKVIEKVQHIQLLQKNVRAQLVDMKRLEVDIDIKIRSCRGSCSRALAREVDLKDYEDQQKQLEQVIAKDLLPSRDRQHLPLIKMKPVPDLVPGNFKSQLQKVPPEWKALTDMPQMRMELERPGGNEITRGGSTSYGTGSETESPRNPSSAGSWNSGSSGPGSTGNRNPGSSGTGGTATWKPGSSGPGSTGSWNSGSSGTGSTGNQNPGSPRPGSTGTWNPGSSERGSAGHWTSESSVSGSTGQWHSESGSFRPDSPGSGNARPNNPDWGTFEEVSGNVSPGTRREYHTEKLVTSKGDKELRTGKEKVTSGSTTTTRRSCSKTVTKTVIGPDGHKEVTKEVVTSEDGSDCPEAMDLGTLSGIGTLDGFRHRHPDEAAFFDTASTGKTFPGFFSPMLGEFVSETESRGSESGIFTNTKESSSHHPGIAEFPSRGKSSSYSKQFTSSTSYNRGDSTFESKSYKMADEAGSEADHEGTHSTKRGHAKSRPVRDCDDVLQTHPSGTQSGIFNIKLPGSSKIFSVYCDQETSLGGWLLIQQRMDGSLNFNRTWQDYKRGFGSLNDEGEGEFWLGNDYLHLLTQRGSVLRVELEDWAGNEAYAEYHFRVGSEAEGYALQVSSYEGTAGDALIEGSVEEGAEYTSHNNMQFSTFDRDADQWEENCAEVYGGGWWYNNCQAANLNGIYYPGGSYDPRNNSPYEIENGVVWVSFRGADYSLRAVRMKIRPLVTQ
T1 sequence (P02675 45-491 partner): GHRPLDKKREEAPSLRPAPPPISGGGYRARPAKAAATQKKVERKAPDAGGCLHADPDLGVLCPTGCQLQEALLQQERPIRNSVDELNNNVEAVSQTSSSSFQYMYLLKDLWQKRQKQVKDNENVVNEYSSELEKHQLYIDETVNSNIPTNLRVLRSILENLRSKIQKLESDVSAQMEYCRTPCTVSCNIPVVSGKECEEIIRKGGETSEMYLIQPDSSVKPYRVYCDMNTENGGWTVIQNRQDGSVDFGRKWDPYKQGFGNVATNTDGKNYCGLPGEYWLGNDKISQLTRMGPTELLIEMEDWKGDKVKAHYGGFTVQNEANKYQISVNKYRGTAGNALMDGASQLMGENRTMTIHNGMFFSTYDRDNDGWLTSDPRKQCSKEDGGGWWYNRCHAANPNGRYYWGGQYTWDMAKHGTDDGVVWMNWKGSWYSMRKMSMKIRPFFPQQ
T1 sequence (P02679 27-453 partner): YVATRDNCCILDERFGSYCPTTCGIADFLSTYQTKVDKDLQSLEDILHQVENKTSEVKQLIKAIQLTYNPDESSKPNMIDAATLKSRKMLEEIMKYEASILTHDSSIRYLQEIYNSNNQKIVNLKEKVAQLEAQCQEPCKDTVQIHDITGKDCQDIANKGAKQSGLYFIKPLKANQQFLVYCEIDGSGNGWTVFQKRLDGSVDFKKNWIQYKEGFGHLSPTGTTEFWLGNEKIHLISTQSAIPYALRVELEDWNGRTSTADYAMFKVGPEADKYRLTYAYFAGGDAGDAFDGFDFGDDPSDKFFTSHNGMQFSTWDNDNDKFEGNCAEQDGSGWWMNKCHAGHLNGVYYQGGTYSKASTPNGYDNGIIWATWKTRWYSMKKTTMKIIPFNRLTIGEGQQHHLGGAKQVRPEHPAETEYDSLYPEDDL

endothelial cells [2] = target: T1, endothelial cells; assay: Endothelial cell spreading on fibrinogen; type: cell-based, human; conditions: 2 mM peptide, medium 199, 2% BSA
washed platelets = assay: Fibrinogen-dependent aggregation of washed platelets; type: cell-based, human; conditions: 2 mM peptide, 20 μM ADP, medium 199

ADP-stimulated platelets, sequence (P08514 32-1039): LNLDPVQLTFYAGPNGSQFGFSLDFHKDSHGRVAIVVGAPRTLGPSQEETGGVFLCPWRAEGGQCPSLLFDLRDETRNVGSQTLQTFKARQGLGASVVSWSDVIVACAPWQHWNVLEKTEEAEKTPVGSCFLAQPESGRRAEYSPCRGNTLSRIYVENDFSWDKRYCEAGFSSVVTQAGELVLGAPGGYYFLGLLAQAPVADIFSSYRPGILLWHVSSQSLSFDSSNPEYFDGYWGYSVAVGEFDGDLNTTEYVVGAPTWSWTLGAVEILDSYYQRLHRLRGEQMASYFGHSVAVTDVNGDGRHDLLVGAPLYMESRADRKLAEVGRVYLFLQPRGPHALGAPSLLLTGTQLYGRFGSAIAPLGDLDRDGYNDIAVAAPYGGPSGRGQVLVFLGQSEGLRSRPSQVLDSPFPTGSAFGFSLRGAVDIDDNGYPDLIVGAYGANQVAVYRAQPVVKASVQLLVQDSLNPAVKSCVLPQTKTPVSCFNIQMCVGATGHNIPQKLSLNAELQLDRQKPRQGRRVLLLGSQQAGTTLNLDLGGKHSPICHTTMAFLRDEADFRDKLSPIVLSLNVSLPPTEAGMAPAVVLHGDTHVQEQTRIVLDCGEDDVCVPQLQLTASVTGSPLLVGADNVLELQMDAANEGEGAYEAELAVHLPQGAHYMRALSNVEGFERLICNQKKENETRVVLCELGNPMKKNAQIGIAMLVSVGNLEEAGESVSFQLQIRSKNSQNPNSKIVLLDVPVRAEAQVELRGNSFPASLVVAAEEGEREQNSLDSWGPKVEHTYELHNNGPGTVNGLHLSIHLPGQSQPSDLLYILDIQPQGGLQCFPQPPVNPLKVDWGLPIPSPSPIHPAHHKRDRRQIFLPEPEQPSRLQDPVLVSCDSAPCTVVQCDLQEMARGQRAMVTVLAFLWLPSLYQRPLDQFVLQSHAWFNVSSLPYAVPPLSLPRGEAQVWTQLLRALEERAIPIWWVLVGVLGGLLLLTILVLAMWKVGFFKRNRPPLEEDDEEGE
ADP-stimulated platelets, sequence (P05106 27-788): as the sequence (P05106 27-788) above
ADP-stimulated platelets, sequence (P02671 36-866 partner): as the sequence (P02671 36-866 partner) above
ADP-stimulated platelets, sequence (P02675 45-491 partner): as the sequence (P02675 45-491 partner) above
ADP-stimulated platelets, sequence (P02679 27-453 partner): as the sequence (P02679 27-453 partner) above

Row | SMILES | Extent of inhibition of fibrinogen binding to platelets (ADP-stimulated platelets) | Extent of inhibition of fibrinogen binding to endothelial cells (endothelial cells [1]) | IC50 (ADP-stimulated platelets) [µM] | Endothelial cell spreading (endothelial cells [2]) | Inhibition Platelet aggregation (washed platelets) [%] | Potency on endothelial cells relative to platelets (endothelial cells [1]; fibrinogen binding inhibition)
1 | CC(C)[C@H](NC(=O)[C@H](CC(=O)O)NC(=O)CNC(=O)[C@H](C)NC(=O)[C@H](CCC(N)=O)NC(=O)[C@H](CCCCN)NC(=O)[C@H](C)NC(=O)CNC(=O)CN)C(=O)O [G9] (H-GGAKQAGDV-OH; N-terminus assumed) | complete | only partially inhibited | – | – | – | –
2 | CC(C)[C@H](NC(=O)[C@H](CC(=O)O)NC(=O)CNC(=O)[C@H](C)NC(=O)[C@H](CCC(N)=O)NC(=O)[C@@H](N)Cc1c[nH]cn1)C(=O)O [HQAGDV] (H-HQAGDV-OH; N-terminus assumed) | – | – | > 1000 | + + | 0 | at least fivefold
3 | CC(C)[C@H](NC(=O)[C@H](CC(=O)O)NC(=O)CNC(=O)[C@H](C)NC(=O)[C@H](CCC(N)=O)NC(=O)[C@@H](N)CCCNC(=N)N)C(=O)O [RQAGDV] (H-RQAGDV-OH; N-terminus assumed) | – | – | > 1000 | – | – | –
4 | CC(C)C[C@H](NC(=O)[C@H](Cc1c[nH]cn1)NC(=O)[C@@H](N)Cc1c[nH]cn1)C(=O)NCC(=O)NCC(=O)N[C@@H](C)C(=O)N[C@@H](CCCCN)C(=O)N[C@@H](CCC(N)=O)C(=O)N[C@@H](C)C(=O)NCC(=O)N[C@@H](CC(=O)O)C(=O)N[C@H](C(=O)O)C(C)C [H12] (H-HHLGGAKQAGDV-OH; N-terminus assumed) | complete | only partially inhibited | – | – | – | –
